The target of one assay is Tryptase (Homo sapiens, UniProt Q9BZJ3+Q15661+Q9NRR2). Briefly: Evaluated for its inhibitory potency against tryptase. In kind it is protein assay.
In the next assay the target is Serine protease 1 (Homo sapiens, UniProt P07477). Nature of the assay: Compound was evaluated for its inhibitory potency against trypsin.
In the next assay the target is Plasminogen (Homo sapiens, UniProt P00747). Briefly: Compound was evaluated for its inhibitory potency against plasmin.
A further assay deals with Prothrombin (Homo sapiens, UniProt P00734). Briefly: Compound was evaluated for its inhibitory potency against thrombin.

Each structure is given as a SMILES string.

By Ki is commonly meant the equilibrium dissociation constant of an inhibitor or competing ligand from its target. A lower Ki goes with higher affinity.

Sequence of Serine protease 1 (P07477 whole entry): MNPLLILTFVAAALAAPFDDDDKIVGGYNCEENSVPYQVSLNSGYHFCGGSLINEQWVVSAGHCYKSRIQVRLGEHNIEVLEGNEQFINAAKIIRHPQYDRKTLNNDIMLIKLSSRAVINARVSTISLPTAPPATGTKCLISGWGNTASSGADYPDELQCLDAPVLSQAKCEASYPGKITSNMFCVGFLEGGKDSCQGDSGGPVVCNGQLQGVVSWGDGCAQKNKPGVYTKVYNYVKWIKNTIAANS
Sequence of Plasminogen (P00747 97-580 limits assumed): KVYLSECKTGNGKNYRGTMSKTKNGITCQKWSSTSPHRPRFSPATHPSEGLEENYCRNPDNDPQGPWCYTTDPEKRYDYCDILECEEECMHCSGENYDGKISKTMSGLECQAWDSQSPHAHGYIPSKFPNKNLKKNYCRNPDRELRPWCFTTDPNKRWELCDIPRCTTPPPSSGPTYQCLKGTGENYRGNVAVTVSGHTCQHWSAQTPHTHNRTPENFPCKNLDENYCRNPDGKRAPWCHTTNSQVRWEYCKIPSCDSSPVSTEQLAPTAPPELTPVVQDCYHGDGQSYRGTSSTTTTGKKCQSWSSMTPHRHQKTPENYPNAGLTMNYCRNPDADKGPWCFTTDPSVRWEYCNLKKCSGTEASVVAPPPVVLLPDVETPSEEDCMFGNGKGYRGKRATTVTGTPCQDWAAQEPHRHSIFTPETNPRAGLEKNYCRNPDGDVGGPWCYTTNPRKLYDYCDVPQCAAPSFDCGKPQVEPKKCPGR
Sequence of Plasminogen (P00747 581-810 limits assumed): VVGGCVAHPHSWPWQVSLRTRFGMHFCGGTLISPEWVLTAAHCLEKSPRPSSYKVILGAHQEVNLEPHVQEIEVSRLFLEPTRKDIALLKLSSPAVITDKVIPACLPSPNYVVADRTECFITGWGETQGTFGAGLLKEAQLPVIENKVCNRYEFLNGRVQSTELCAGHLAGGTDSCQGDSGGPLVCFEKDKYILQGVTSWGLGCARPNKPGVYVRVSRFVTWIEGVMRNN

For the molecule `N=C(N)Nc1ccc(CNC(=O)N2CCN(C(=O)O[C@H]3CCC[C@@H](OC(=O)N4CCN(C(=O)NCCc5ccncc5)CC4)CCC3)CC2)cc1`, the Ki on Tryptase is 0.9 µM; on Serine protease 1, 131 µM; on Plasminogen, above 1000 µM; on Prothrombin, above 1000 µM.
Consider `NC[C@H]1CC[C@H](CNC(=O)N2CCN(C(=O)O[C@H]3CCC[C@@H](OC(=O)N4CCN(C(=O)NC[C@H]5CC[C@H](CN)CC5)CC4)CCC3)CC2)CC1`, for which the Ki is 0.016 µM at Tryptase, above 1000 µM at Serine protease 1, above 1000 µM on Plasminogen and above 1000 µM on Prothrombin.
Consider `N=C(N)Nc1ccc(CNC(=O)N2CCN(C(=O)O[C@H]3CCC[C@@H](OC(=O)N4CCN(C(=O)CCCCCn5ccnc5)CC4)CCC3)CC2)cc1`, for which the Ki is 0.03 µM at Tryptase, 171 µM on Serine protease 1, above 1000 µM on Plasminogen and above 1000 µM at Prothrombin.
As for `N=C(N)Nc1ccc(CNC(=O)N2CCN(C(=O)O[C@@H]3CO[C@H]4[C@@H]3OC[C@H]4OC(=O)N3CCN(C(=O)NCc4ccc(NC(=N)N)cc4)CC3)CC2)cc1`, the Ki on Serine protease 1 is 15 µM; on Plasminogen, 700 µM; at Prothrombin it was 138 µM.
Consider `N=C(N)Nc1ccc(CCC(=O)N2CCN(C(=O)O[C@H]3CCC[C@@H](OC(=O)N4CCN(C(=O)CCc5ccc(NC(=N)N)cc5)CC4)CCC3)CC2)cc1`, for which the Ki at Tryptase is 0.21 µM; on Serine protease 1 it was above 1000 µM; at Plasminogen, above 1000 µM; at Prothrombin, 537 µM.
Turning to `O=C(NCCC1CCNCC1)N1CCN(C(=O)O[C@H]2CCC[C@@H](OC(=O)N3CCN(C(=O)NCCC4CCNCC4)CC3)CCC2)CC1`, the Ki at Tryptase was 0.115 µM; on Serine protease 1, above 1000 µM; at Plasminogen, above 1000 µM; on Prothrombin, above 1000 µM.
As to `NCCc1ccc(CCNC(=O)N2CCN(C(=O)O[C@H]3CCC[C@@H](OC(=O)N4CCN(C(=O)NCCc5ccc(CCN)cc5)CC4)CCC3)CC2)cc1`, the Ki is 1 µM at Tryptase, above 1000 µM at Serine protease 1, 570 µM on Plasminogen and above 1000 µM at Prothrombin.
With `N=C(N)Nc1ccc(CNC(=O)N2CCN(C(=O)O[C@H]3CCC[C@@H](OC(=O)N4CCN(C(=O)NCCCN)CC4)CCC3)CC2)cc1`, the Ki on Tryptase was 0.044 µM; on Serine protease 1, 138 µM; at Plasminogen it was above 1000 µM; on Prothrombin, above 1000 µM.
With `N=C(N)Nc1ccc(CNC(=O)N2CCN(C(=O)O[C@H]3C[C@H]4C[C@@H](OC(=O)N5CCN(C(=O)NCc6ccc(NC(=N)N)cc6)CC5)C[C@H]4C3)CC2)cc1`, the Ki at Tryptase was 0.028 µM; at Serine protease 1, 4 µM; on Prothrombin, above 1000 µM.
`N=C(N)Nc1ccc(CNC(=O)N2CCN(C(=O)O[C@H]3CCC[C@@H](OC(=O)N4CCN(C(=O)CCCC5CCNCC5)CC4)CCC3)CC2)cc1`: the Ki at Tryptase was 0.004 µM; on Serine protease 1, 262 µM; at Plasminogen it was above 1000 µM; at Prothrombin, above 1000 µM.
On to `N=C(N)Nc1ccc(CNC(=O)N2CCN(C(=O)OC[C@H]3CC[C@H](COC(=O)N4CCN(C(=O)NCc5ccc(NC(=N)N)cc5)CC4)CC3)CC2)cc1`, for which the Ki is 0.003 µM on Tryptase, 28 µM on Serine protease 1 and above 1000 µM on Plasminogen.
For the molecule `N=C(N)Nc1ccc(CNC(=O)N2CCN(C(=O)O[C@H]3CCC[C@@H](OC(=O)N4CCN(C(=O)NC[C@H]5CC[C@H](N)CC5)CC4)CCC3)CC2)cc1`, the Ki at Tryptase was 0.001 µM; on Serine protease 1, 141 µM; at Plasminogen, above 1000 µM; at Prothrombin it was above 1000 µM.
Turning to `N=C(N)Nc1ccc(CNC(=O)N2CCN(C(=O)O[C@H]3CCC[C@@H](OC(=O)N4CCN(C(=O)CCc5ccc(N)nc5)CC4)CCC3)CC2)cc1`, the inhibitory constant (Ki) at Tryptase is 0.18 µM; at Serine protease 1, 156 µM; on Plasminogen it was above 1000 µM; on Prothrombin, above 1000 µM.
`N=C(N)Nc1ccc(CNC(=O)N2CCN(C(=O)O[C@H]3CCC[C@@H](OC(=O)N4CCN(C(=O)NCCC5CCNCC5)CC4)CCC3)CC2)cc1`: the Ki at Tryptase was 0.003 µM; on Serine protease 1 it was 121 µM; at Plasminogen, above 1000 µM; at Prothrombin, above 1000 µM.
Consider `N=C(N)Nc1ccc(CNC(=O)N2CCN(C(=O)CCCCCCC(=O)N3CCN(C(=O)NCc4ccc(NC(=N)N)cc4)CC3)CC2)cc1`, for which the Ki at Tryptase is 0.0001 µM; at Serine protease 1, 34 µM; at Plasminogen, above 1000 µM; on Prothrombin it was above 1000 µM.
As for `NCC12CCC(CNC(=O)N3CCN(C(=O)O[C@H]4CCC[C@@H](OC(=O)N5CCN(C(=O)NCC67CCC(CN)(CC6)CC7)CC5)CCC4)CC3)(CC1)CC2`, the Ki was 0.3 µM at Tryptase, 95 µM at Serine protease 1, above 1000 µM on Plasminogen and above 1000 µM at Prothrombin.
Take `CN(CCC1CCNCC1)C(=O)N1CCN(C(=O)O[C@H]2CCC[C@@H](OC(=O)N3CCN(C(=O)NCc4ccc(NC(=N)N)cc4)CC3)CCC2)CC1`: the Ki is 0.68 µM at Tryptase, 126 µM at Serine protease 1, above 1000 µM at Plasminogen and above 1000 µM at Prothrombin.
With `NCc1ccc(CNC(=O)N2CCN(C(=O)O[C@H]3CCC[C@@H](OC(=O)N4CCN(C(=O)NCc5ccc(CN)cc5)CC4)CCC3)CC2)cc1`, the Ki is 0.0001 µM at Tryptase, 219 µM on Serine protease 1, above 1000 µM on Plasminogen and above 1000 µM on Prothrombin.
Turning to `O=C(NCc1ccccc1)N1CCN(C(=O)O[C@H]2CCC[C@@H](OC(=O)N3CCN(C(=O)NCc4ccccc4)CC3)CCC2)CC1`, the Ki on Tryptase stood at 101 µM.
With `N=C(N)c1ccc(CCC(=O)N2CCN(C(=O)O[C@H]3CCC[C@@H](OC(=O)N4CCN(C(=O)CCc5ccc(C(=N)N)cc5)CC4)CCC3)CC2)cc1`, the Ki was found to be 0.0004 µM at Tryptase, 21 µM on Serine protease 1, 66 µM at Plasminogen and 29 µM at Prothrombin.
The matching figures for `NCCc1ccc(CC(=O)N2CCN(C(=O)O[C@H]3CCC[C@@H](OC(=O)N4CCN(C(=O)Cc5ccc(CCN)cc5)CC4)CCC3)CC2)cc1`: 0.002 µM, above 1000 µM, above 1000 µM and above 1000 µM.
The matching figures for `N=C(N)Nc1ccc(CNC(=O)N2CCN(C(=O)OCc3ccc(COC(=O)N4CCN(C(=O)NCc5ccc(NC(=N)N)cc5)CC4)cc3)CC2)cc1`: 0.0004 µM, 17 µM, above 1000 µM and above 1000 µM.
The matching figures for `N=C(N)N1CCC(CCC(=O)N2CCN(C(=O)O[C@H]3CCC[C@@H](OC(=O)N4CCN(C(=O)CCC5CCN(C(=N)N)CC5)CC4)CCC3)CC2)CC1`: 0.002 µM, 171 µM, above 1000 µM and 213 µM.
Take `N=C(N)Nc1ccc(CNC(=O)N2CCN(C(=O)CCCCCC(=O)N3CCN(C(=O)NCc4ccc(NC(=N)N)cc4)CC3)CC2)cc1`: the Ki at Tryptase was 0.004 µM; on Serine protease 1 it was 52 µM; at Plasminogen, above 1000 µM; on Prothrombin, above 1000 µM.
Take `N=C(N)Nc1ccc(CNC(=O)N2CCN(C(=O)CCCCCCCCC(=O)N3CCN(C(=O)NCc4ccc(NC(=N)N)cc4)CC3)CC2)cc1`: the Ki on Tryptase is 0.0007 µM; at Serine protease 1, 20 µM; on Plasminogen, above 1000 µM; at Prothrombin, above 1000 µM.
Turning to `N=C(N)Nc1ccc(CNC(=O)N2CCN(C(=O)O[C@H]3CCC[C@@H](OC(=O)N4CCN(C(=O)CCCn5ccnc5)CC4)CCC3)CC2)cc1`, the Ki at Tryptase was above 1000 µM; at Serine protease 1 it was 158 µM; on Plasminogen, above 1000 µM; on Prothrombin it was above 1000 µM.
For `N=C(N)N1CCC(CCNC(=O)N2CCN(C(=O)O[C@H]3CCC[C@@H](OC(=O)N4CCN(C(=O)NCCC5CCN(C(=N)N)CC5)CC4)CCC3)CC2)CC1`, the Ki on Tryptase was 0.03 µM; on Serine protease 1, 850 µM; on Plasminogen, 632 µM; at Prothrombin, 112 µM.
As to `N=C(N)Nc1ccc(CNC(=O)N2CCN(C(=O)O[C@H]3CCC[C@@H](OC(=O)N4CCN(C(=O)NC[C@H]5CC[C@@H](N)CC5)CC4)CCC3)CC2)cc1`, the Ki on Tryptase was 0.078 µM; at Serine protease 1, 171 µM; at Plasminogen, above 1000 µM; at Prothrombin it was 274 µM.
The matching figures for `NCCCCNC(=O)N1CCN(C(=O)O[C@H]2CCC[C@@H](OC(=O)N3CCN(C(=O)NCCCCN)CC3)CCC2)CC1`: 0.51 µM, above 1000 µM, above 1000 µM and above 1000 µM.
Regarding `CN1CCC(CCNC(=O)N2CCN(C(=O)O[C@H]3CCC[C@@H](OC(=O)N4CCN(C(=O)NCc5ccc(NC(=N)N)cc5)CC4)CCC3)CC2)CC1`, the Ki at Tryptase is 3 µM; at Serine protease 1, 110 µM; at Plasminogen, above 1000 µM; at Prothrombin, 269 µM.
The matching figures for `N=C(N)N1CCC(CNC(=O)N2CCN(C(=O)O[C@H]3CCC[C@@H](OC(=O)N4CCN(C(=O)NCC5CCN(C(=N)N)CC5)CC4)CCC3)CC2)CC1`: 0.61 µM, above 1000 µM, above 1000 µM and 146 µM.
`N=C(N)Nc1ccc(CNC(=O)N2CCN(C(=O)O[C@H]3CCC[C@@H](OC(=O)N4CCN(C(=O)NCCCC5CCNCC5)CC4)CCC3)CC2)cc1`: the Ki at Tryptase was 0.24 µM; on Serine protease 1, 80 µM; on Plasminogen, above 1000 µM; at Prothrombin it was above 1000 µM.
Regarding `N=C(N)Nc1ccc(CNC(=O)N2CCN(C(=O)O[C@H]3CCC[C@@H](OC(=O)N4CCN(C(=O)NCc5ccccc5)CC4)CCC3)CC2)cc1`, the inhibitory constant (Ki) at Tryptase is 15 µM.
Consider `N=C(N)Nc1ccc(CNC(=O)N2CCN(C(=O)O[C@H]3CCC[C@@H](OC(=O)N4CCN(C(=O)CCCCn5ccnc5)CC4)CCC3)CC2)cc1`, for which the inhibition constant Ki at Tryptase is 1 µM; on Serine protease 1 it was 144 µM; at Plasminogen, above 1000 µM; on Prothrombin, above 1000 µM.
Regarding `N=C(N)Nc1ccc(CNC(=O)N2CCN(C(=O)O[C@H]3CCC[C@@H](OC(=O)N4CCN(C(=O)NCCCCN)CC4)CCC3)CC2)cc1`, the Ki is 0.004 µM on Tryptase, 132 µM at Serine protease 1, above 1000 µM on Plasminogen and above 1000 µM at Prothrombin.
